The subject of test [1] is KMS.12.BM cells. Kind of test: KMS.12.BM Cell Viability Assay (Example B1). Format: cell-based, human. The settings on record: Homo sapiens, 72 h, 3 days, Cell Titer-GLO, read-out: KMS cellular IC50. An outline of the steps: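 KMS.12.BM human myeloma cells, 5000 cells/well in RPMI with 10% FBS, exposed to a compound concentration range for 3 days. Viable cells measured by ATP-based Cell Titer-GLO luminescence after 10 min at room temperature.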
(ATP-based viability assays read luminescence as a measure of living cells.)

For test [2], the system named is C-myc in KMS.12.BM cells. Kind of test: KMS.12.BM C-Myc ELISA Assay (Example C1). Format: cell-based. The conditions noted are these: Homo sapiens, 2 h. How it is done:
KMS.12.BM C-Myc ELISA Assay
KMS.12.BM cell line (human myeloma) was purchased from JCRB (Osaka, Japan) and maintained in RPMI with 10% FBS culture medium. To measure the C-myc inhibitory activity of the compounds, the KMS.12.BM cells are plated in the RPMI culture medium at 75000 cells/well/per 200 μL into a 96-well flat bottom polystyrene tissue culture plate (Corning through VWR, NJ), in the presence or absence of a concentration range of test compounds. After 2 h, cells are pelleted and lysed with Cell Extraction Buffer (BioSource, Carlsbad, Calif.) in the presence of protease inhibitors (Life Technologies, Grand Island, N.Y. and Sigma, St Louis, Mo.). Clarified lyses are tested in a C-myc commercial ELISA (Life Technologies, Grand Island, N.Y.).
Background: An ELISA detects its analyte on a solid surface through an enzyme-linked reagent.

Structures can show the parent of a compound that is named as a salt. Where two headings read alike, the source gives them in different places. Where only a bound is given, the exact number is not on record here.

For `Cc1noc(C)c1-c1ccc2[nH]c(=O)n3c2c1OCC3c1ccc(F)cc1F` (stereo not drawn) [Example 8, 7-(3,5-Dimethylisoxazol-4-yl)-4-(2,4-difluorophenyl)-4,5-dihydroimidazo[1,5,4-de][1,4]benzoxazin-2(1H)-one], the IC50 in test [1] and in test [2] was < 1 µM each time.
Consider `Cc1noc(C)c1-c1ccc2nc(N(C)CCO)n3c2c1OCC3c1ccccc1` (stereo not drawn) [Example 34, 2-[[7-(3,5-Dimethylisoxazol-4-yl)-4-phenyl-4,5-dihydroimidazo[1,5,4-de][1,4]benzoxazin-2-yl](methyl)amino]ethanol], for which the IC50 in test [1] and in test [2] was < 1 µM in each case.
`COc1ccccc1C1COc2c(-c3c(C)noc3C)ccc3[nH]c(=O)n1c23` (stereo not drawn) [Example 7, 7-(3,5-Dimethylisoxazol-4-yl)-4-(2-methoxyphenyl)-4,5-dihydroimidazo[1,5,4-de][1,4]benzoxazin-2(1H)-one]: the IC50 in test [1] and in test [2] was < 1 µM throughout.
Take `Cc1noc(C)c1-c1ccc2[nH]c(=O)n3c2c1OCC3c1ccc(C#N)cc1` (stereo not drawn) [Example 4, 4-[7-(3,5-Dimethylisoxazol-4-yl)-2-oxo-1,2,4,5-tetrahydroimidazo[1,5,4-de][1,4]benzoxazin-4-yl]benzonitrile]: the IC50 in test [1] and in test [2] was < 1 µM each time.
For the molecule `Cc1noc(C)c1-c1ccc2[nH]c(=O)n3c2c1OC(C)C3c1ccccc1` (stereo not drawn) [Example 3, 7-(3,5-Dimethylisoxazol-4-yl)-5-methyl-4-phenyl-4,5-dihydroimidazo[1,5,4-de][1,4]benzoxazin-2(1H)-one], the IC50 in test [1] and in test [2] was < 1 µM each time.
For `Cc1noc(C)c1-c1ccc2c3c1OCC(c1ccccc1)n3c(=O)n2CCN1CCOCC1` (stereo not drawn) [Example 10, 7-(3,5-Dimethylisoxazol-4-yl)-1-(2-morpholin-4-ylethyl)-4-phenyl-4,5-dihydroimidazo[1,5,4-de][1,4]benzoxazin-2(1H)-one], the IC50 in test [1] (KMS-12-BM) and in test [2] was < 1 µM each time.
`CC(=O)NCc1cc(-c2c(C)noc2C)c2c3c1[nH]c(=O)n3[C@@H](c1ccccn1)CO2` [Example 138, N-{[(4S)-7-(3,5-Dimethylisoxazol-4-yl)-2-oxo-4-pyridin-2-yl-1,2,4,5-tetrahydroimidazo[1,5,4-de][1,4]benzoxazin-9-yl]methyl}acetamide trifluoroacetate]: the IC50 in test [1] and in test [2] was < 1 µM in each case.
`Cc1noc(C)c1-c1cc(CNS(C)(=O)=O)c2[nH]c(=O)n3c2c1OC[C@@H]3c1ccccn1` [Example 141, N-{[(4S)-7-(3,5-Dimethylisoxazol-4-yl)-2-oxo-4-pyridin-2-yl-1,2,4,5-tetrahydroimidazo[1,5,4-de][1,4]benzoxazin-9-yl]methyl}methanesulfonamide]: the IC50 in test [1] and in test [2] was < 1 µM throughout.
On to `Cc1noc(C)c1-c1cc(C(C)O)c2[nH]c(=O)n3c2c1OC[C@@H]3c1ccccn1` (single isomer, unassigned) [Example 144A], for which the IC50 in test [1] and in test [2] was < 1 µM each time.
For `Cc1noc(C)c1-c1ccc2nc(NCC(C)O)n3c2c1OCC3c1ccccc1` (stereo not drawn) [Example 32, 1-{[7-(3,5-Dimethylisoxazol-4-yl)-4-phenyl-4,5-dihydroimidazo[1,5,4-de][1,4]benzoxazin-2-yl]amino}propan-2-ol], the IC50 in test [1] and in test [2] was < 1 µM each time.
As to `Cc1noc(C)c1-c1ccc2nc(N(C)C)n3c2c1OCC3c1ccccc1` (stereo not drawn) [Example 28, 7-(3,5-Dimethylisoxazol-4-yl)-N,N-dimethyl-4-phenyl-4,5-dihydroimidazo[1,5,4-de][1,4]benzoxazin-2-amine], the IC50 in test [1] and in test [2] was < 1 µM each time.
As for `Cc1noc(C)c1-c1ccc2nc(C(N)=O)n3c2c1OC[C@@H]3c1ccccn1` [Example 96, (4S)-7-(3,5-Dimethylisoxazol-4-yl)-4-pyridin-2-yl-4,5-dihydroimidazo[1,5,4-de][1,4]benzoxazine-2-carboxamide], the IC50 in test [1] and in test [2] was < 1 µM each time.
For `Cc1noc(C)c1-c1ccc2[nH]c(=O)n3c2c1OCC3c1cccnc1C(N)=O` (stereo not drawn) [Example 127, 3-[7-(3,5-Dimethylisoxazol-4-yl)-2-oxo-1,2,4,5-tetrahydroimidazo[1,5,4-de][1,4]benzoxazin-4-yl]pyridine-2-carboxamide trifluoroacetate], the IC50 in test [1] and in test [2] was < 1 µM in each case.
Take `CC(=O)N1CC=C(c2nc3ccc(-c4c(C)noc4C)c4c3n2[C@@H](c2ccccn2)CO4)CC1` [Example 110, (4S)-2-(1-acetyl-1,2,3,6-tetrahydropyridin-4-yl)-7-(3,5-dimethylisoxazol-4-yl)-4-pyridin-2-yl-4,5-dihydroimidazo[1,5,4-de][1,4]benzoxazine]: the IC50 in test [1] and in test [2] was < 1 µM each time.
As to `Cc1noc(C)c1-c1ccc2nc(NCCO)n3c2c1OCC3c1ccccc1` (stereo not drawn) [Example 29, 2-{[7-(3,5-Dimethylisoxazol-4-yl)-4-phenyl-4,5-dihydroimidazo[1,5,4-de][1,4]benzoxazin-2-yl]amino}ethanol], the IC50 in test [1] and in test [2] was < 1 µM in each case.
Regarding `CNC(=O)c1nc2ccc(-c3c(C)noc3C)c3c2n1[C@@H](c1ccccn1)CO3` [Example 95, (4S)-7-(3,5-Dimethylisoxazol-4-yl)-N-methyl-4-pyridin-2-yl-4,5-dihydroimidazo[1,5,4-de][1,4]benzoxazine-2-carboxamide], the IC50 in test [1] and in test [2] was < 1 µM throughout.
For the molecule `Cc1noc(C)c1-c1ccc2[nH]c(=O)n3c2c1OCC3c1nccs1` (stereo not drawn) [Example 21, 7-(3,5-Dimethylisoxazol-4-yl)-4-(1,3-thiazol-2-yl)-4,5-dihydroimidazo[1,5,4-de][1,4]benzoxazin-2(1H)-one], the IC50 in test [1] and in test [2] was < 1 µM each time.
Consider `COCC(=O)NCc1cc(-c2c(C)noc2C)c2c3c1[nH]c(=O)n3[C@@H](c1ccccn1)CO2` [Example 140, N-{[(4S)-7-(3,5-Dimethylisoxazol-4-yl)-2-oxo-4-pyridin-2-yl-1,2,4,5-tetrahydroimidazo[1,5,4-de][1,4]benzoxazin-9-yl]methyl}-2-methoxyacetamide], for which the IC50 in test [1] and in test [2] was < 1 µM throughout.
For the molecule `Cc1noc(C)c1-c1ccc2[nH]c(=O)n3c2c1OCC3c1cccnc1C(=O)NC1CC1` (single isomer, unassigned) [Example 134, N-Cyclopropyl-3-[7-(3,5-dimethylisoxazol-4-yl)-2-oxo-1,2,4,5-tetrahydroimidazo[1,5,4-de][1,4]benzoxazin-4-yl]pyridine-2-carboxamide], the IC50 in test [1] and in test [2] was < 1 µM throughout.
As to `Cc1noc(C)c1-c1ccc2nc(C(=O)N3CCOCC3)n3c2c1OC[C@@H]3c1ccccn1` [Example 94, (4S)-7-(3,5-Dimethylisoxazol-4-yl)-2-(morpholin-4-ylcarbonyl)-4-pyridin-2-yl-4,5-dihydroimidazo[1,5,4-de][1,4]benzoxazine], the IC50 in test [1] and in test [2] was < 1 µM in each case.
With `Cc1noc(C)c1-c1cc(CNC(=O)Cc2ccccc2)c2[nH]c(=O)n3c2c1OC[C@@H]3c1ccccn1` [Example 139, N-{[(4S)-7-(3,5-Dimethylisoxazol-4-yl)-2-oxo-4-pyridin-2-yl-1,2,4,5-tetrahydroimidazo[1,5,4-de][1,4]benzoxazin-9-yl]methyl}-2-phenylacetamide], the figures for the IC50 in test [1] and in test [2] were < 1 µM and 1 to 10 µM, respectively.
Taken in the same sequence, the figures for `CNC(=O)c1ncccc1C1COc2c(-c3c(C)noc3C)ccc3[nH]c(=O)n1c23` (stereo not drawn) [Example 128, 3-[7-(3,5-Dimethylisoxazol-4-yl)-2-oxo-1,2,4,5-tetrahydroimidazo[1,5,4-de][1,4]benzoxazin-4-yl]-N-methylpyridine-2-carboxamide] were < 1 µM and < 1 µM.
`Cc1noc(C)c1-c1ccc2nc(NC(C)CO)n3c2c1OCC3c1ccccc1` (single isomer, unassigned) [Example 30, 2-{[7-(3,5-Dimethylisoxazol-4-yl)-4-phenyl-4,5-dihydroimidazo[1,5,4-de][1,4]benzoxazin-2-yl]amino}propan-1-ol]: the IC50 in test [1] and in test [2] was < 1 µM throughout.
As to `CCNc1nc2ccc(-c3c(C)noc3C)c3c2n1C(c1ccccc1)CO3` (stereo not drawn) [Example 27, 7-(3,5-Dimethylisoxazol-4-yl)-N-ethyl-4-phenyl-4,5-dihydroimidazo[1,5,4-de][1,4]benzoxazin-2-amine], the IC50 in test [1] and in test [2] was < 1 µM each time.

The record behind these values is US10464947B2 (Incyte Corporation, priority 2013, dated 2019).
